Laboratory results taken from US3941795A, “α-ARYL-4-SUBSTITUTED PIPERIDINOALKANOL DERIVATIVES” (Richardson-Merrell Inc., priority 1974, dated 1976).

Tested on: wheals induced by intradermal injections on 1γ of histamine
Experiment: reduction by 50% of wheals induced by intradermal injections of histamine into guinea pigs (antihistamine)
Format: in vivo
Conditions: Cavia porcellus, po, 1 h, orally administered one hour prior to the histamine injection, 1γ of histamine intradermal, read-out: ED50 (amount required to reduce by 50% wheals induced by intradermal injections of histamine)
Excerpt: To illustrate the utility of the compounds of this invention the following tabulation indicates the amount of certain representative compounds of this invention required to reduce by 50% wheals induced by intradermal injections on 1γ of histamine into guinea pigs. Each compound was orally administered one hour prior to the histamine injection.

| SMILES | ED50 [mg/kg] |
| --- | --- |
| COc1ccccc1C(=C1CCN(CCCC(O)c2ccc(C(C)(C)C)cc2)CC1)c1ccccc1 (stereo not drawn) [4-[4-[α-(o-Anisyl)benzylidene]-α-(p-tert-butylphenyl)-1-piperidinebutanol]] | 4.4 |
| CC(C)(C)c1ccc(C(O)CCCN2CCC(C(O)(c3ccccc3)C3CCCCC3)CC2)cc1.Cl (stereo not drawn) [4-(α-cyclohexyl-α-hydroxybenzyl)-α-(p-tert-butylphenyl)-1-piperidinebutanol hydrochloride] | 12 |
